Results taken from US7960397B2, “6,9-disubstituted purine derivatives and their use as cosmetics and cosmetic compositions” (Institute of Experimental Botany, Academy of Sciences of …, priority 2007, dated 2011).
Where two headings read alike, the source gives them in different places.

Assays:
[1] = tested on: β-adrenergic receptors; test: Isoproterenol-induced cAMP synthesis in rat C6 glioma; type: cell-based; conditions: cellular cAMP, simultaneous addition with isoproterenol, 30 min
Protocol: Anti-inflammatory activity. The compounds of formula 1 having anti-inflammatory activities can be used as cosmetics for treating inflammation skin disorders as atopic dermatitis, lichen planus, hyperpigmentation and Herpes simplex lesions. From this reason, rat C6 glioma (ATCC No. CCL107) was cultivated as a monolayer in a serum-free chemically defined medium containing Ham's F10-minimal essential medium (1:1 v/v), 2 mM L-glutamine, 1% (v/v) minimal essential medium vitamins (100×), 1% (v/v) minimal essential medium nonessential amino acids (100×), 100U/ml penicillin, […] streptomycin and 30 nM sodium selenite. Incubation was performed at 37° C. in a humidified atmosphere. The assays were performed in the logarithmic growth phase at a density of 2.5×10^5 cells/cm^2. Intracellular cAMP synthesis was induced by addition of […] (−)isoproterenol. After 30 min incubation at 37° C. the medium was removed and the cellular amount of cAMP was determined using the cAMP-enzyme immunoassay Amersham kit. The I50 value was determined from a dose-response curve in duplicate. The effect of the novel 6,9-disubstituted purines was measured after simultaneous addition with isoproterenol.
As P2Y1-like and A2 purinergic receptors, negatively and positively coupled to adenylate cyclase, respectively, are present in rat C6 glioma, it remains to be determined whether the modulation of the synthesis of cAMP is due to the inhibition of the activation of β-adrenergic receptors by isoproterenol, or due to the activation of purinergic receptors.

[2] = tested on: human diploid fibroblasts (HCA cells, HCA20, HCA40, HCA60); test: Senescent cells (β-galactosidase staining) in culture of human fibroblasts; type: cell-based; conditions: for SENESCENT CELLS (%) HCA20: human fibroblasts passage 20 (HCA20); for SENESCENT CELLS (%) HCA40: human fibroblasts passage 40 (HCA40); for SENESCENT CELLS (%) HCA60: human fibroblasts passage 60 (HCA60)
Method in brief: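 Fibroblasts taken at passages 20, 40 and 60 were washed and fixed for 5 min at room temperature in 2% formaldehyde/0.2% glutaraldehyde in PBS. After PBS washes, cells were incubated at 37 °C for β-galactosidase staining.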

[3] = tested on: cytokinin-dependent tobacco callus Nicotiana tabacum L. cv. Wisconsin 38; test: Cytokinin activity in tobacco callus bioassay; type: cell-based; conditions: for concentration with highest activity: growth of tobacco callus, four weeks of cultivation, tested 10^−8 M to 10^−4 M; for Activity (%) [10^−5 mol · l^−1 BAP = 100%]: increase of fresh callus weight at the concentration with highest activity, 10^−5 M BAP = 100%
[4] = tested on: Amaranthus caudatus cotyledon/hypocotyl explants; test: Amaranthus bioassay (betacyanin content); set-up: species or system Amaranthus caudatus var. atropurpurea; conditions: for concentration with highest activity: betacyanin content after 48 h incubation, tested 10^−8 M to 10^−4 M; for Activity (%) [10^−5 mol · l^−1 BAP = 100%]: betacyanin content at the concentration with highest activity, 10^−5 M BAP = 100%
Method in brief: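 Amaranthus caudatus explants (cotyledons plus hypocotyl) from 72 h dark-grown seedlings were incubated in darkness on medium with 10 mmol Na2HPO4–KH2PO4 pH 6.8, 5 mmol tyrosine and test compound; stock was 10^−3 M in DMSO/water. Betacyanin was measured as A537−A620 and activity expressed relative to 10^−5 M BAP (100%).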

[5] = tested on: excised wheat leaf tips; test: Antisenescence test, retention of chlorophyll in excised wheat leaf tips; set-up: species or system Triticum aestivum cv. Hereward; conditions: for activity (%) [10^−4 mol · l^−1 BAP = 100%]: retention of chlorophyll in excised wheat leaf tips at the concentration with highest activity, 10 replicate determinations; for concentration with highest activity: retention of chlorophyll in excised wheat leaf tips, tested range 10^−8 M to 10^−4 M, 96 h in the dark at 25° C.
Method in brief: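 Winter wheat seedlings (Triticum aestivum cv. Hereward) were raised on vermiculite with Knop's solution at 25° C. for 7 days. Tips of the first leaf, 35 mm long (five tips, 100 mg combined), stood in […] of test solution in microtiter wells. After 96 h in the dark at 25° C., chlorophyll was extracted in 80% ethanol at 80° C. and read at 665 nm. Activity is relative to 10^−4 M BAP (100%).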

[6] = tested on: human myeloid leukemia K-562; test: In vitro cytotoxicity, Calcein AM assay; conditions: read-out: GI50 K-562
Protocol: (§1) Because only metabolically active cells cleave Calcein AM, these assays detect viable cells exclusively. The quantity of reduced Calcein AM corresponds to the number of vital cells in the culture.
(§2) The cells were maintained in Nunc/Corning 80 cm^2 plastic tissue culture flasks and cultured in cell culture medium (DMEM with 5 g/l glucose, 2 mM glutamine, 100 U/ml penicillin, 100 mg/ml streptomycin, 10% fetal calf serum and sodium bicarbonate).
(§3) The cell suspensions that were prepared and diluted according to the particular cell type and the expected target cell density (2,500-30,000 cells per well based on cell growth characteristics) were added by pipette (80 ml) into 96-well microtiter plates. Inoculates were allowed a pre-incubation period of 24 hours at 37° C. and 5% CO2 for stabilization. Four-fold dilutions of the intended test concentration were added at time zero in 20 ml aliquots to the microtiter plate wells. Usually, the compound tested was evaluated at six 4-fold dilutions. […] All drug concentrations were examined in duplicate. Incubations of cells with the tested compounds lasted for 72 hours at 37° C., in a 5% CO2 atmosphere and 100% humidity. At the end of the incubation period, the cells were assayed by using Calcein AM. Ten microliters of the stock solution were pipetted into each well and incubated for 1 hour. Fluorescence (FD) was measured with the Labsystem FIA Reader Fluoroscan Ascent (UK).

[7] = tested on: breast carcinoma cell line MCF-7; test: In vitro cytotoxicity, Calcein AM assay; conditions: read-out: GI50 MCF7
Protocol: as §1, §2, §3

[8] = tested on: human osteosarcoma HOS; test: In vitro cytotoxicity, Calcein AM assay; conditions: read-out: GI50 HOS
Protocol: as §1, §2, §3

[9] = tested on: promyelocytic HL-60 leukemia; test: In vitro cytotoxicity, Calcein AM assay; conditions: read-out: GI50 HL60
Protocol: as §1, §2, §3

[10] = tested on: mouse fibroblasts NIH3T3; test: In vitro cytotoxicity, Calcein AM assay; conditions: read-out: GI50 NIH-3T3
Protocol: as §1, §2, §3

[11] = tested on: Human T-lymphoblastic leukemia cell line CEM; test: In vitro cytotoxicity, Calcein AM assay; conditions: read-out: GI50 CEM
Protocol: as §1, §2, §3

SMILES	SENESCENT CELLS (%) HCA20 [2] [%]	SENESCENT CELLS (%) HCA40 [2] [%]	SENESCENT CELLS (%) HCA60 [2] [%]	concentration with highest activity [3]	Activity (%) [10^−5 mol · l^−1 BAP = 100%] [3] [%]	concentration with highest activity [4]	Activity (%) [10^−5 mol · l^−1 BAP = 100%] [4] [%]	activity (%) [10^−4 mol · l^−1 BAP = 100%] [5] [%]	concentration with highest activity [5]	GI50 ([6]; K-562, 72 hours, Calcein AM) [µM]	GI50 ([7]; MCF7, 72 hours, Calcein AM) [µM]	GI50 ([8]; HOS, 72 hours, Calcein AM) [µM]	GI50 ([9]; HL60, 72 hours, Calcein AM) [µM]	GI50 ([10]; NIH-3T3, 72 hours, Calcein AM) [µM]	GI50 ([11]; CEM, 72 hours, Calcein AM) [µM]	further results
Oc1ccc(CNc2ncnc3c2ncn3C2CCCCO2)cc1O (stereo not drawn)	3	4	15	10^−5 mol · l^−1	61	10^−4 mol · l^−1	52	71.3	10^−4 mol · l^−1	–	–	–	–	–	–	Effect (modulation of the activity of β-adrenergic receptors) [1]: 1.7-fold fold activation
COc1cc(O)cc(OC)c1CNc1ncnc2c1ncn2C1CCCCO1 (stereo not drawn)	4	5	21	10^−5 mol · l^−1	43	10^−4 mol · l^−1	12	22	10^−4 mol · l^−1	–	–	–	–	–	–	Effect (modulation of the activity of β-adrenergic receptors) [1]: 1.3-fol fold activation
COc1cc(CNc2ncnc3c2ncn3C2CCCCO2)ccc1O (stereo not drawn)	4	4	19	10^−6 mol · l^−1	62	10^−4 mol · l^−1	57	55	10^−4 mol · l^−1	–	–	–	–	–	–	Effect (modulation of the activity of β-adrenergic receptors) [1]: 1.6-fold fold activation
Oc1coc(CNc2ncnc3c2ncn3C2CCCCO2)c1 (stereo not drawn)	4	4	16	10^−6 mol · l^−1	91	10^−4 mol · l^−1	115	101	10^−4 mol · l^−1	> 167	> 167	> 167	–	–	–	–
Oc1ccccc1CNc1ncnc2[nH]cnc12 [2-hydroxybenzylamino / H, reference compound]	–	–	–	10^−5 mol · l^−1	72.3	10^−4 mol · l^−1	32.6	22.4	10^−4 mol · l^−1	> 167	> 167	> 167	78	> 167	69.2	–
Oc1cccc(CNc2ncnc3[nH]cnc23)c1 [3-hydroxybenzylamino / H, reference compound]	–	–	–	10^−5 mol · l^−1	116	10^−5 mol · l^−1	99	105.9	10^−4 mol · l^−1	128	> 167	> 167	79.2	> 167	90.1	–
Cc1cc(CNc2ncnc3c2ncn3C2CCCCO2)ccc1O (stereo not drawn) [4-hydroxy-3-methylbenzylamino / tetrahydropyran-2-yl]	4	6	22	10^−5 mol · l^−1	4	10^−4 mol · l^−1	7	9	10^−4 mol · l^−1	–	> 167	> 167	> 167	> 167	> 167	–
Cc1cc(CNc2ncnc3c2ncn3C2CCCCO2)ccc1O (stereo not drawn) [4-hydroxy-5-methylbenzylamino / tetrahydropyran-2-yl]	3	4	20	10^−5 mol · l^−1	6	10^−4 mol · l^−1	5	3	10^−4 mol · l^−1	–	> 167	> 167	> 1670	> 1670	> 167	–
C/C(=C\CNc1ncnc2c1ncn2C1CCCCO1)CO (stereo not drawn) [6-(E)-(4-hydroxy-3-methylbut-2-en-1-ylamino)-9-(tetrahydropyran-2-yl)purine]	–	–	–	10^−5 mol · l^−1	96.5	10^−4 mol · l^−1	299.4	38.2	10^−4 mol · l^−1	–	–	–	–	–	–	GI50 ([7]; Homo sapiens, MCF7, 72 h): > 167 µM; GI50 ([8]; Homo sapiens, 72 h): > 167 µM; GI50 ([9]; Homo sapiens, HL-60, 72 h): > 167 µM; GI50 ([10]; Mus musculus, NIH3T3, 72 h): > 167 µM; GI50 ([11]; Homo sapiens, 72 h): > 167 µM
c1ccc(CNc2ncnc3nc[nH]c23)cc1 [benzylamino / H, 6-benzylaminopurine, reference compound]	–	–	–	10^−6 mol · l^−1	100	10^−5 mol · l^−1	100	100	10^−4 mol · l^−1	–	–	–	–	–	–	GI50 ([6]; Homo sapiens, K562, 72 h): 139 µM; GI50 ([7]; Homo sapiens, MCF7, 72 h): 166 µM; GI50 ([8]; Homo sapiens, 72 h): > 167 µM; GI50 ([9]; Homo sapiens, HL-60, 72 h): > 167 µM; GI50 ([10]; Mus musculus, NIH3T3, 72 h): > 167 µM; GI50 ([11]; Homo sapiens, 72 h): > 167 µM
c1coc(CNc2ncnc3[nH]cnc23)c1 [furfurylamino / H, reference compound]	–	–	–	–	–	–	–	–	–	164	> 167	> 167	149	> 167	155	–
CC(C)=CCNc1ncnc2nc[nH]c12 [isopentenylamino / H]	–	–	–	–	–	–	–	–	–	147	> 167	> 167	> 167	> 167	92.2	–
